Measurements from US20260120814A1, “SYSTEMS, METHODS, AND DEVICES FOR PREDICTING PHARMACOKINETIC INFLUENCES ON KETOGENESIS FOLLOWING ADMINISTRATION OF TRICAPRILIN” (CERECIN INC., priority 2022, published 2026).
In brackets after ≈: the same amount, converted by molar mass.

Key:
[1] = PBB model population parameters fitted to the phase I clinical trial; set-up: species or system humans; settings: population parameter, after peroral AC-SD-03
From the text: In some scenarios the PBB model 102 can be written in the Mixtran programming language and executed using Monolix 2020R1 (e.g., Antony, France). The initial parameters and fixed-parameter ranges (e.g., such as those shown in Table 1 and/or the model inputs 106) can be obtained (e.g., from experimentation data and/or literature data).
In the following, population parameters can be obtained for the target population treated with a MCT formulation (e.g., AC-SD-03) using the Stochastic Approximation Expectation-Maximization (SAEM) algorithm. The population parameters can be considered to be log-normally distributed. Additionally, the estimation tasks of the empirical Bayes estimates (EBEs) and the conditional distribution can be performed to calculate the individual predictions and give the uncertainty of the individual parameters and the data for each individual, respectively. The individual clinical data 124 for the free fatty acid (e.g., octanoic acid) and ketones obtained from the pharmacokinetic study can be used for model validation. For instance, the accuracy of the prediction can be assessed by calculating the relative mean absolute prediction error (MAPE, %) using the following equation: […]
In some scenarios, considering that all population parameters can be within the initial ranges and prediction errors can remain at a low level, initial values (Table 1) can provide an estimate of the physiological and formulation-related influences. This leads to the following conclusions. Once tricaprilin reaches the small intestine, with a rate of 1.7 h^1, the absorption of fatty acids can become the rate-limiting step. Also, there can be more significant fluctuations in the absorption rate between different individuals as compared to the much faster lipolysis (4.6 h-1) and ketogenesis (2.6 h^1). The conversion of octanoic acid in the liver can play a minor role in the availability of the active form of tricaprilin. […] These observations can be systematically evaluated in the PPSA, and/or can be provided to the PBB model 102 as model inputs 106 or as part of a validation process.

[2] = set-up: species or system humans; settings: human, in vivo
From the text: To estimate the parameters involved in the distribution, metabolism, and elimination of the free fatty acid (such as octanoic acid), reliable data sources can be identified for generating a training data set to describe plasma pharmacokinetics after intravenous administration of either free fatty acids (such as octanoic acid) or ketones. Pharmacokinetic data 120 related to the MCT (such as tricaprilin) and its metabolites in humans, which can be included in the training data 122 and/or used by a validation system 124 of the biopharmaceutics modeling system, is summarized in Table 2:
In some examples, ketone plasma concentration can be quantified following an intravenous bolus injection of sodium acetoacetate (n=12). Acetoacetate and D-f3-hydroxybutyrate (n=6), two main components of plasma ketones, can also be quantified upon intravenous infusion of D-f3-hydroxybutyrate at three different doses. Blood free fatty acid (such as octanoic acid) concentration can be measured upon peroral administration of the free fatty acid (e.g, octanoic acid) at five different doses to a patient population (n=3 per dose). This pharmacokinetic data 120 can be analyzed using PKanalix 2020R1 (e.g., Lixoft, Antony, France). These injections, infusions, and/or consumptions of the doses by a target patient can be provided to the PBB model 102 (e.g., as the patient data 105). […]

[3] = Phase I clinical pharmacokinetic study of AC-SD-03; format: in vivo, healthy male (Caucasian and Chinese) volunteers; settings: human
Experimental: A clinical pharmacokinetic study can be conducted (e.g., to generate the model inputs 106) with the MCT formulation. For example, a clinical pharmacokinetic study was conducted on the tricaprilin product AC-SD-03, approved by the local Institutional Review Board and carried out in compliance with the Good Clinical Practice guidelines of the International Conference of Harmonization (ICH-GCP). It was an open-label, randomized 2-way crossover study. Twenty healthy male (Caucasian and Chinese) volunteers in an age range of 18-50 years were enrolled. All subjects had undergone a supervised overnight fast of at least 8 h until 1 h before their scheduled morning dose. The breakfast consisting of 2 pieces of toast with butter, 2 strips of bacon, 2 scrambled eggs, 113 g of hash browns, and 240 mL of whole milk was standardized for all subjects. […] An additional 60 ml of water was used to rinse the dosing cup and administered to the subjects. Water was only restricted 1 h before and 1 h after drug administration, but was allowed ad libitum at all other times. Food and other fluid intake was restricted throughout the confinement period. Upon peroral administration of a single dose of the formulation, the blood tricaprilin, octanoic acid, and ketone body concentrations were quantified. For tricaprilin, blood samples were collected at 0, 1.5, 2.0, 2.5, and 8 h. […]

[4] = Estimated absorption of undigested tricaprilin into blood circulation; settings: during the first 4 hours
Experimental: As a next step, the digestion of the MCT formulation (such as AC-SD-03) in vitro can be measured. The formulation can be exposed to a gastric medium followed by lipolysis in a medium simulating intestinal conditions. The latter can result in the liberation of fatty acids expressed as the percentage of digested free fatty acid (e.g., tricaprilin), as shown at the graph 306. For each mole of tricaprilin, three moles of titratable fatty acids can be released. Within the first 5 min, 40±3% of tricaprilin can be converted to octanoic acid, followed by a gradual reduction in the digestion rate. After 15 min, the digestion profile plateaued at 83±4%. Assuming rapid absorption from the intestine, the digestion rate (kd) and extent (F) of lipolysis are mainly responsible for the bioavailability of octanoic acid. […] On a side note, there can be a certain probability that undigested tricaprilin can be absorbed into blood circulation as well. However, one estimated rate can be […] for this process. This corresponds to less than 0.5% of the total dose during the first 4 hours. […] Metabolic processes such as the hepatic conversion of tricaprilin would generally result in the formation of octanoic acid, subsequently converted to ketone bodies.

[5] = cited from earlier work

Row | SMILES | absorption rate of fatty acids [1] [h^1] | ketogenesis rate [1] [h^1] | VOA, volume of distribution of octanoic acid [2] [L] | absorption rate constant (ka) [2] [h⁻¹] | lipolysis rate [1] [h⁻¹] | tricaprilin found in blood circulation ([3]; phase I clinical trial, peroral AC-SD-03) | Cmax ([3]; male, blood, oral, 50 g AC-SD-03 (42,500 μmol tricaprilin), read-out: Cmax of undigested triglyceride) [nM] | fraction of total dose absorbed as undigested tricaprilin [4] | aqueous solubility [5] [µg/mL]
1 | CCCCCCCC(=O)O [octanoic acid] | 1.7 | 2.6 | 40.55 to 163.26 | 0.23 to 3.16 | – | – | – | – | –
2 | CCCCCCCC(=O)OCC(COC(=O)CCCCCCC)OC(=O)CCCCCCC [Tricaprilin] | – | – | – | – | 4.6 | negligible amounts | 1050 | less than 0.5% | 0.4 (≈ 0.85 µM)
